Data published in publication PMC9974934, “Bifunctional small molecules targeting PD-L1/CXCL12 as dual immunotherapy for cancer treatment” (Signal Transduction and Targeted Therapy, 2023).
Where two headings read alike, the source gives them in different places. Values belong to the molecule of their own block, whether it stands above or below them.

What was measured:
[1] = target: T1, PD-1/PD-L1 interaction (Homo sapiens, UniProt Q9NZQ7); test: PD-1/PD-L1 HTRF assay; format: biochemical; details: read-out: IC50, anti-PD-1/PD-L1 potency
T1 construct: purchased Cisbio 64ICP01PEG&64ICP01PEH

[2] = Pharmacokinetic study in male SD rats; format: in vivo, rat; details: for MRT last: read-out: MRT(0–t); for MRT inf: read-out: MRT(0–∞)
Method: Pharmacokinetic Study in Male SD Rats. Male SD rats (300–360 g) were purchased from Liaoning Changsheng Biotechnology Co., Ltd. Diet. […] The mobile phase consisted of a mixture of solvent A (acetonitrile) and solvent B (formic acid/ ultrapure water, 1:1000, v/v). The linear gradient program for the mobile phase was set as follows: 0 min 10% A; 0.5 min 30% A; 1 min 95% A; 2 min 95% A; 2.3 min 10% A. The flow rate of the mobile phase was 0.4 mL/min, and the injection volume was 2 μL. The XEVO TQD triple quadrupole mass spectrometer was equipped with an electrospray ionization (ESI) source; multiple reaction monitoring (MRM) mode was selected for quantitation. The Mass Lynx 4.1 software (Waters Corp.) was used for data acquisition. Mass spectral data were obtained in positive electrospray mode (ESI+) in MRM mode.

[3] = system: HepG2 cells co-cultured with Jurkat T cells; test: HepG2 cell mortality in Jurkat T & HepG2 co-culture model; format: cell-based; details: CCK-8
Method: Assessment of HepG2 cell mortality rate (Cellular). Firstly, HepG2 cells were stimulated with human IFN-γ (Peprotech, catalog number: 300-02) to express hPD-L1 stably. Jurkat T cells were stimulated with PHA-P (Invivogen, catalog number: inh-phap). Then, HepG2 (5×10^4) and Jurkat T cells (5×10^4) were added to the co-cultured model. […] Finally, the Jurkat T cells were completely removed by washing the supernatant (200 μL) with cold PBS for 4 times. The mortality rate of HepG2 cells was determined by CCK-8 assay (Dojindo, CCK8, 500 test).

[4] = system: CXCL12-mediated Ca2+ cellular responses in THP-1 cells; test: Calcium flux assay in THP-1 cells; format: cell-based; details: spectrofluorometry
Method: Calcium flux assays. THP-1 cells were incubated with Fluo-4AM (Invitrogen, catalog number: F14201) calcium-dependent fluorophore for 0.5 h, washed and resuspended. […] Ca^2+ flux was measured (Ex = 488 nm; Em = 520 nm).

[5] = H&E staining of mice organs; format: in vivo, mouse
[6] = Creatine kinase isoenzyme assay; format: in vivo, mouse; details: mice
[7] = target: T2, murine CXCL12 (Mus musculus, UniProt P40224); test: SPR binding to mCXCL12
T2 construct: purchased Sino Biological Biotics Inc 50025-MNAE-2
Method: (§1) SPR, ITC, CD assay. […] SPRi assay was carried out using PlexAray HT.

[8] = system: CXCL12-mediated cell migration, THP-1 cells; test: Transwell chemotaxis test in THP-1 cells; format: cell-based
[9] = system: CT-26 colon syngeneic tumor; test: In vivo efficacy in CT-26 colon syngeneic tumor model; parameters: species or system mouse; details: 75 mg/kg for 17 days
Description: (§2) In vivo efficacy study in a melanoma model and CT26 tumor model. Protocols for animal experiments (B16-F10 and CT-26 tumor model) were approved by the NIACEC (National Institutional Animal Care & Ethical Committee) at SMU (Southern Medical University). C57BL/6 male mice (6-8 weeks old) were purchased from Liaoning Changsheng Biosciences. Briefly, A total of 2×10^5 B16-F10 melanoma cells or CT26 cells (1×10^6) were inoculated into mouse (in the right flank) according to protocols of tumor transplantation studies in mice. […] Tumor volume was measured with a traceable electronic digital caliper (every 2 days).
Figure. […] Then, sacrificed and tumors weights and volumes were measured. (A) Images of tumors and weight of tumors; (B) changes of body weights of mice during treatment; (C) Individual tumor growth curves over time (D) changes of tumor volume during treatment. *P < 0.05, **P < 0.01, and ****P < 0.0001 (n=3).

[10] = target: T3, human CXCL12 (Homo sapiens, UniProt P48061); test: SPR binding to hCXCL12
T3 construct: purchased Sino Biological Biotics Inc 13511-HNCE-2
Method: as §1

[11] = system: B16-F10 melanoma tumors; test: In vivo efficacy in B16-F10 melanoma model; details: mouse B16-F10 model
Description: as §2

[12] = Serum biochemistry for liver and kidney function; format: in vivo, mouse; details: mice
[13] = rat, plasma, iv, I.V. 1 mg/kg, mean ± SD
[14] = rat, plasma, po, P.O. 18 mg/kg, mean ± SD

T1 sequence (Q9NZQ7 19-238 limits assumed): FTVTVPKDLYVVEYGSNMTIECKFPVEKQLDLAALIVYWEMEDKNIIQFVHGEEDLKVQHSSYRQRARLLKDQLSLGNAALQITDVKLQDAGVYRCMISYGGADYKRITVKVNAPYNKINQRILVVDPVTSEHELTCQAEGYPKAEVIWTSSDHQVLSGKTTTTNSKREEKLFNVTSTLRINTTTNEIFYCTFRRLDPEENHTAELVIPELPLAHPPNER
T3 sequence (P48061 22-93): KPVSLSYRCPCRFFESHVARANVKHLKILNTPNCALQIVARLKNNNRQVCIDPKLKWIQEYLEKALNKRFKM
T2 sequence (P40224 22-93): as the sequence (P48061 22-93) above, with V18I, F70L counted along it

- IC50 [1]: > 1000 nM
SMILES: COc1ccc(C(=O)/C=C/c2ccc(OCc3ccc(CNC(=O)CCCCNC(=O)C(C)(C)NCc4cc(Cl)c(OCc5cccc(-c6ccccc6)c5C)cc4OCc4cccc(C#N)c4)cc3)c(OC)c2)cc1 [CP12]

- melting point: 128.1 to 128.9 °C
- IC50 [1]: 126 nM
SMILES: COc1ccc(C(=O)/C=C/c2ccc(OCc3ccc(CNC(=O)C4CCCCN4Cc4cc(Cl)c(OCc5cccc(-c6ccccc6)c5C)cc4OCc4cccc(C#N)c4)cc3)c(OC)c2)cc1 (centres unmarked) [CP17]

- IC50 [1]: > 1000 nM
SMILES: CCOC(=O)COc1cc(OCc2cccc(-c3ccccc3)c2C)c(Cl)cc1CN1CCCCC1C(=O)NCCCC(=O)NCc1ccc(COc2ccc(/C=C/C(=O)c3ccc(OC)cc3)cc2OC)cc1 (centres unmarked) [CP16]

- melting point: 120.1 to 120.9 °C
- IC50 [1]: 107 nM
SMILES: COc1ccc(C(=O)/C=C/c2ccc(OCc3ccc(CNC(=O)CCCNC(=O)C4CCCCN4Cc4cc(Cl)c(OCc5cccc(-c6ccccc6)c5C)cc4OCc4cccc(C#N)c4)cc3)c(OC)c2)cc1 (centres unmarked) [CP18]

- IC50 [1]: 88.5 nM
SMILES: COc1ccc(C(=O)/C=C/c2ccc(OCc3ccc(CNC(=O)CCNC(=O)C4CCCCN4Cc4cc(Cl)c(OCc5cccc(-c6ccccc6)c5C)cc4OCc4cccc(C#N)c4)cc3)c(OC)c2)cc1 (centres unmarked) [CP20]

- IC50 [1]: 101 nM
SMILES: COc1ccc(C(=O)/C=C/c2ccc(OCc3ccc(CNC(=O)CCCNC(=O)C(C)(C)NCc4cc(Cl)c(OCc5cccc(-c6ccccc6)c5C)cc4OCc4cccc(C#N)c4)cc3)c(OC)c2)cc1 [CP9]

- IC50 [1]: > 1000 nM
SMILES: COc1ccc(C(=O)/C=C/c2ccc(OCc3ccc(CNC(=O)CCCCNC(=O)C4CCCCN4Cc4cc(Cl)c(OCc5cccc(-c6ccccc6)c5C)cc4OCc4cccc(C#N)c4)cc3)c(OC)c2)cc1 (centres unmarked) [CP19]

- IC50 [1]: > 1000 nM
SMILES: COc1ccc(C(=O)/C=C/c2ccc(OCc3ccc(CNC(=O)CCCNC(=O)C4CCCCN4Cc4cc(Cl)c(OCc5cccc(-c6ccccc6)c5C)cc4OCc4ccc(OC(F)(F)F)cc4)cc3)c(OC)c2)cc1 (centres unmarked) [CP8]

More lines, now with the values behind:

SMILES: COc1ccc(C(=O)/C=C/c2ccc(OCc3ccc(CNC(=O)C4CCN(C(=O)C5CCCCN5Cc5cc(Cl)c(OCc6cccc(-c7ccccc7)c6C)cc5OCc5ccc(OC(F)(F)F)cc5)CC4)cc3)c(OC)c2)cc1 (centres unmarked) [CP7]
- IC50 [1]: > 1000 nM

SMILES: CCOC(=O)COc1cc(OCc2cccc(-c3ccccc3)c2C)c(Cl)cc1CN1CCCCC1C(=O)NCCC(=O)NCc1ccc(COc2ccc(/C=C/C(=O)c3ccc(OC)cc3)cc2OC)cc1 (centres unmarked) [CP13]
- IC50 [1]: > 1000 nM

SMILES: COc1ccc(C(=O)/C=C/c2ccc(OCc3ccc(CNC(=O)CCCNC(=O)C4CCCCN4Cc4ccc(OCc5cccc(-c6ccccc6)c5C)c(Br)c4)cc3)c(OC)c2)cc1 (centres unmarked) [CP4]
- IC50 [1]: > 1000 nM

SMILES: COc1ccc(C(=O)/C=C/c2ccc(OCc3ccc(CNC(=O)C4CCCCN4Cc4ccc(OCc5cccc(-c6ccccc6)c5C)c(Br)c4)cc3)c(OC)c2)cc1 (centres unmarked) [CP2]
- melting point: 124.8 to 125.9 °C
- IC50 [1]: > 1000 nM

SMILES: COc1ccc(C(=O)/C=C/c2ccc(OCc3ccc(CNC(=O)C(C)(C)NCc4cc(Cl)c(OCc5cccc(-c6ccccc6)c5C)cc4OCc4cccc(C#N)c4)cc3)c(OC)c2)cc1 [CP10]
- IC50 [1]: > 1000 nM

SMILES: CCOC(=O)COc1cc(OCc2cccc(-c3ccccc3)c2C)c(Cl)cc1CN1CCCCC1C(=O)NCc1ccc(COc2ccc(/C=C/C(=O)c3ccc(OC)cc3)cc2OC)cc1 (centres unmarked) [CP14]
- IC50 [1]: > 1000 nM

SMILES: COc1ccc(C(=O)/C=C/c2ccc(OCc3ccc(CNC(=O)CCNC(=O)C4CCCCN4Cc4ccc(OCc5cccc(-c6ccccc6)c5C)c(Br)c4)cc3)c(OC)c2)cc1 (centres unmarked) [CP5]
- IC50 [1]: > 1000 nM

SMILES: COc1ccc(C(=O)/C=C/c2ccc(OCc3ccc(CNC(=O)CCCCNC(=O)C4CCCCN4Cc4ccc(OCc5cccc(-c6ccccc6)c5C)c(Br)c4)cc3)c(OC)c2)cc1 (centres unmarked) [CP1]
- IC50 [1]: > 1000 nM

SMILES: CCOC(=O)COc1cc(OCc2cccc(-c3ccccc3)c2C)c(Cl)cc1CN1CCCCC1C(=O)N1CCC(C(=O)NCc2ccc(COc3ccc(/C=C/C(=O)c4ccc(OC)cc4)cc3OC)cc2)CC1 (centres unmarked) [CP15]
- IC50 [1]: > 1000 nM

SMILES: COc1ccc(C(=O)/C=C/c2ccc(OCc3ccc(CNC(=O)CCNC(=O)C(C)(C)NCc4cc(Cl)c(OCc5cccc(-c6ccccc6)c5C)cc4OCc4cccc(C#N)c4)cc3)c(OC)c2)cc1 [CP11]
- IC50 [1]: 870 nM

SMILES: COc1ccc(C(=O)/C=C/c2ccc(OCc3ccc(CNC(=O)C4CCN(C(=O)C5CCCCN5Cc5cc(Cl)c(OCc6cccc(-c7ccccc7)c6C)cc5OCc5cccc(C#N)c5)CC4)cc3)c(OC)c2)cc1 (centres unmarked) [CP21]
- CL ([2]; P.O. 18 mg/kg, mean ± SD): 2347 ± 83.3 mL/min/kg
- Vz ([2]; P.O. 18 mg/kg, mean ± SD): 467.4 ± 184.8 L/kg
- Tmax ([2]; rat, plasma, iv, I.V. 1 mg/kg): 0.083 h
- AUC(0-inf) [2, 13]: 2138 ± 18.3 ng·h/mL
- AUC(0-t) [2, 13]: 2032 ± 11.4 ng·h/mL
- Cmax [2, 13]: 326 ± 58.1 ng/mL
- clearance [2, 13]: 8.33 mL/min/kg
- half-life [2, 13]: 12.4 ± 0.3 h
- MRT last [2, 13]: 11.3 ± 0.4 h
- MRT inf [2, 13]: 14 ± 0.5 h
- Vd ([2]; rat, plasma, iv, I.V. 1 mg/kg, mean ± SD, read-out: Vz): 8.4 ± 0.2 L/kg
- AUC(0-inf) [2, 14]: 128 ± 4.6 ng·h/mL
- AUC(0-t) [2, 14]: 128 ± 4.8 ng·h/mL
- Cmax [2, 14]: 20.5 ± 3.1 ng/mL
- Tmax [2, 14]: 6.3 ± 0.8 h
- half-life [2, 14]: 2.2 ± 0.8 h
- MRT last [2, 14]: 5.9 ± 0.2 h
- MRT inf [2, 14]: 6 ± 0.2 h
- Death of HepG2 cells [3]: dose-dependently promoted
- CXCL12-induced calcium responses [4]: dose-dependently inhibited
- Morphological aberration of organs (H&E staining) [5]: no apparent morphological aberration
- Cardiotoxicity (creatine kinase isoenzyme assay) [6]: did not cause cardiotoxicity
- Kd [7]: 76.5 nM
- CXCL12-mediated cell migration [8]: dose-dependently inhibited
- In vivo antitumor efficacy [9]: similarly high in vivo antitumor efficacy
- Kd [10]: 160 nM
- Body weights of mice during treatment [11]: did not change markedly
- Tumor weights and volumes ([11]; 75 and 125 mg/kg): dose-dependently decreased
- Tumor growth inhibition (TGI) ([11]; oral 125 mg/kg): 58.5%
- Hepatotoxicity and nephrotoxicity (serum biochemistry) [12]: did not induce hepatotoxicity and nephrotoxicity

SMILES: COc1ccc(C(=O)/C=C/c2ccc(OCc3ccc(CNC(=O)C4CCCCN4Cc4cc(Cl)c(OCc5cccc(-c6ccccc6)c5C)cc4OCc4ccc(OC(F)(F)F)cc4)cc3)c(OC)c2)cc1 (centres unmarked) [CP6]
- IC50 [1]: > 1000 nM

SMILES: COc1ccc(C(=O)/C=C/c2ccc(OCc3ccc(CNC(=O)C4CCN(C(=O)C5CCCCN5Cc5ccc(OCc6cccc(-c7ccccc7)c6C)c(Br)c5)CC4)cc3)c(OC)c2)cc1 (centres unmarked) [CP3]
- IC50 [1]: > 1000 nM
